# Values of other authors as cited in patent US20080044356A1, “Assemblies of Oligomeric Amyloid Beta Protein and Uses Thereof” (Regents of the University of Minnesota, priority 2004, published 2008).
# Like-named read-outs stand apart in the source and are kept apart here.
# Key:
# [1] = tested on: rats
# [2] = tested on: rats; remark: listed apart in the source
# [3] = tested on: Alzheimer's disease (AD) patients
# [4] = animals treated in utero (congenital hypothyroidism), versus controls
# [5] = congenitally hypothyroid rats with replacement treatment
compound,measurement,setting,value
CN1[C@@H]2CC[C@H]1C[C@@H](OC(=O)C(CO)c1ccccc1)C2 (stereo partly shown) [atropine],switching errors,[1]; 1.0 mg/kg IP,increases switching errors significantly
same,ALCR Cognitive Effect,[1]; route IP,Increased errors
same,ALCR Running Response Rate,[1]; route IP,No effect
same,ALCR Running Response Rate,"[1]; route IP, 1 mg/kg",Reduced
CC(C)Cc1ccc(C(C)C(=O)O)cc1 (stereo not shown) [ibuprofen],effect on Aβ-induced ALCR performance decrements,[1]; after IH injection of pre-aggregated Aβ,mitigated these effects
same,ALCR Cognitive Effect,[1]; route PO,Normalized errors
same,ALCR Running Response Rate,[1]; route PO,No effect
"Cn1cc[nH]c1=S [methimzole, methimazole]",motivation for food in the PR task,[2]; [4],not different from that of controls
same,Direct test of Motivation,"[2]; route PO, FOA, PR assessments",No effect
same,learning to criterion in the ALCR task,[1]; [4],significantly slower learning to criterion
same,ALCR Cognitive Effect,[1]; route PO,Slow learning
same,ALCR Running Response Rate,[1]; route PO,No effect
"N[C@@H](Cc1cc(I)c(Oc2cc(I)c(O)c(I)c2)c(I)c1)C(=O)O [thyroxin, thyroxine]",motivation for food in the PR task,[2]; [5],performed equally well
same,learning to criterion and error rates in the ALCR task,[1]; [5],normal learning to criterion and error rates
"AN-1792: beta amyloid peptide 1-42, used for active immunization",adverse reaction to active immunization,"[3]; human, in vivo",risk of encephalitis
same,cognitive function,"[3]; immunization, subset of AD patients",encouraging preliminary reports
